Usually AUC stands for the area under the concentration-time curve, a measure of exposure. One may read the Cmax as the peak of the concentration-time curve.

Here are results for three compounds from patent US10835533B2, “1 -((3S,4R)-4-(3-fluorophenyl)-1-(2-methoxyethyl)pyrrolidin-3-yl)-3-(4-methyl-3-(2-methylpyrimidin-5-yl)-1-phenyl-1H-pyrazol-5-yl)urea as a TrkA kinase inhibitor” (Array BioPharma Inc., priority 2014, dated 2020).

The data set can be described thus: Male Sprague Dawley rat pharmacokinetics, oral 10 mg/kg (Example D). Format: in vivo. Particulars: for Plasma:Brain ratio: Rat PO 10 mg/kg, plasma and brain collected 2 hours post dose; for Trough concentration / AUC / Cmax: Rat, oral dose 10 mg/kg, plasma; for AUC / Cmax: male, Sprague Dawley. The procedure: Each of Compound 1, Compound 2, and Compound 3 was formulated by adding the compound (dry) to 20% Trappsol® (hydroxypropyl Beta cyclodextrin; CDT, Inc.) (aq) pH 5.0 and vortexing until a homogeneous suspension (PO) or solution (IV) was achieved.
For oral dosing, rats received a single oral dose following an overnight fast. Blood was drawn from the lateral tail vein while the animal was anesthetized with 3% isoflurane balanced with O2 (0.2 mL/timepoint) into NaEDTA tubes (1.5% v/v) at the following time points: 5, 15, and 30 minutes, and 1, 2, 4, 8, 24 and 26 hours, and mixed thoroughly. Following the 24 hour blood collection, animals were redosed orally, and plasma and brain were collected 2 hours post dose for compound analysis. Brains were perefused with saline before removal, weighed and flash frozen in liquid nitrogen until analysis by LCMS/MS. Plasma was separated by centrifugation at 14,000 rpm for 10 minutes and the plasma samples were transferred to 96 well plate tubes with rubber caps and stored at −20±5° C. until analyzed.
A single 12-point calibration curve was prepared by first serially diluting (3-fold) a 40-μg/mL stock solution of Compound 1, Compound 2, and Compound 3 in DMSO to provide standard solutions. Plasma (20 μL) was then added to the extraction plate, and 2.5 μL of each standard solution was added to the naïve plasma. A stock solution of an internal standard (10.0 μL of 2.5 μg/mL in acetonitrile) subsequently was added to each standard and sample solution. Proteinaceous material was precipitated from 20 μL of plasma with the addition of 317.5 μL of acetonitrile for a total volume of 350 μL. Samples were vortex-mixed for 5 minutes and spun in an Allegra X-12R centrifuge (Beckman Coulter, Fullerton, Calif.) for 15 minutes at approximately 1,500×g at 4° C. A 100-μL aliquot of each supernatant was transferred via a 550 μL Personal Pipettor (Apricot Designs, Monrovia, Calif.) to 96-well plates and diluted 1:1 with HPLC grade water. The resulting plates were sealed with plate mats and the amount of Compound 1n the plasma was analyzed by LC-MS/MS.
The LC-MS/MS system was comprised of an HTC-PAL autosampler (Leap Technologies, Inc., Carrboro, N.C.), an HP1100 HPLC (Agilent Technologies Inc., Santa Clara, Calif.), and an API4000 triple quadrupole mass spectrometer (Applied Biosystems, Foster City, Calif.). Chromatographic retention of the analyte and internal standard was achieved using a Phenomenex® Synergi 4μ Hydro-RP 80A column (2.1×30 mm, 4 μm particle size; Phenomenex, Torrance, Calif.) in conjunction with gradient conditions using mobile phases A (10 mM ammonium acetate in aqueous 0.1% formic acid and 1% isopropyl alcohol) and B (10 mM ammonium acetate in 89.9% acetonitrile, 10% methanol, 0.1% formic acid). The total run time, including re-equilibration time, for a single injection was 3.5 minutes and the flow rate was 0.8 mL/minute. Solvent B was increased from 5 to 95% in 1.0 minute, held at 95% for 1.0 minute, and then decreased to 5% in 0.1 minute.
A single 12-point calibration curve was prepared by first serially diluting (3-fold) a 40-μg/mL stock solution of each of Compound 1, Compound 2, and Compound 3 in DMSO. Brain homogenate was prepared by adding 5.0 mL of water to conical 50 mL tubes containing brains. The contents of the tubes were homogenized using an Omni-Prep Multi Sample Homogenizer (Kennesaw, Ga.) at 22,000 RPM for 180 seconds. The homogenate (100 μL) was added to the extraction plate, and 2.5 μL each standard solution was added to the naïve brain homogenate. A stock solution of an internal standard (10.0 μL of 2.5 μg/mL in acetonitrile) subsequently was added to each standard and sample solution. Proteinaceous material was precipitated from 100 μL of […] with the addition of 237.5 μL of acetonitrile for a total volume of 350 μL. […]

As to `COCCN1C[C@@H](NC(=O)Nc2c(C)c(-c3cnc(C)nc3)nn2-c2ccccc2)[C@H](c2ccc(F)c(F)c2)C1` [Compound 2, 1-((3S,4R)-4-(3,4-difluorophenyl)-1-(2-methoxyethyl)pyrrolidin-3-yl)-3-(4-methyl-3-(2-methylpyrimidin-5-yl)-1-phenyl-1H-pyrazol-5-yl)urea], the “Plasma:Brain ratio” value is on record as 11, the Trough concentration came to 0.000446 µg/mL, the AUC was determined as 925 ng·h/mL and the peak concentration (Cmax) was found to be 420 ng/mL.
As for `COCCN1C[C@@H](NC(=O)Nc2c(C)c(-c3cnn(C)c3)nn2-c2ccccc2)[C@H](c2ccc(F)cc2)C1` [Compound 3, 1-(1′,4-dimethyl-1-phenyl-1H,1′H-[3,4′-bipyrazol]-5-yl)-3-((3S,4R)-4-(4-fluorophenyl)-1-(2-methoxyethyl)pyrrolidin-3-yl)urea], the Trough concentration was found to be 0.00044 µg/mL, the AUC came out at 1060 ng·h/mL and the maximum concentration (Cmax) was found to be 498 ng/mL.
In the case of `COCCN1C[C@@H](NC(=O)Nc2c(C)c(-c3cnc(C)nc3)nn2-c2ccccc2)[C@H](c2cccc(F)c2)C1` [Compound 1, 1-((3S,4R)-4-(3-fluorophenyl)-1-(2-methoxyethyl)pyrrolidin-3-yl)-3-(4-methyl-3-(2-methylpyrimidin-5-yl)-1-phenyl-1H-pyrazol-5-yl)urea], the “Plasma:Brain ratio” value amounted to 21, the Trough concentration turned out to be 0.00134 µg/mL, the exposure (AUC) amounted to 2570 ng·h/mL and the highest concentration (Cmax) came out at 1060 ng/mL.
